molecular target: full-length recombinant human FYN A (Homo sapiens (Human), UniProt P06241); experiment: ADP-Glo Kinase Assay of FYN kinase inhibition; type: biochemical; details: primary screen, initial compounds
Summary of the method: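 GST-tagged full-length FYN A (baculovirus, Sf9) at 3 pg preincubated 30 min RT with compound (10-point 3-fold series from 10 μM) in Tris pH 7.5/MgCl2 buffer. 12-mer tyrosine peptide plus 12.5 pmol ATP added, 90 min RT; ADP measured by ADP-Glo luminescence, IC50 from dose-response.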

full-length recombinant human FYN A, sequence (P06241 whole entry): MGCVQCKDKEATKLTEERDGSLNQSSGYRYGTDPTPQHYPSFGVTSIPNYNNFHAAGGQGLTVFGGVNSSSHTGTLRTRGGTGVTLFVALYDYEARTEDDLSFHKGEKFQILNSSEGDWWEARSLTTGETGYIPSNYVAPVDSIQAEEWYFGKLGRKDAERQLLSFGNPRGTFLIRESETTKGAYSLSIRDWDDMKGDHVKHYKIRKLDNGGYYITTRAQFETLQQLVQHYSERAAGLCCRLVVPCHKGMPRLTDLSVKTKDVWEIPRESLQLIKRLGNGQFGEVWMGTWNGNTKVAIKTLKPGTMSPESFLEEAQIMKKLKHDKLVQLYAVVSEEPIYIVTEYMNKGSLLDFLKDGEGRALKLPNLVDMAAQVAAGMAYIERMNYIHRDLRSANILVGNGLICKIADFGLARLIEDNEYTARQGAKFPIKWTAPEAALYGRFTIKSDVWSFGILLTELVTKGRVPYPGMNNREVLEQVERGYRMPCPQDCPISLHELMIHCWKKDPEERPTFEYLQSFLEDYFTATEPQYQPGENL

| SMILES | IC50 |
| --- | --- |
| CN(C)C(=O)c1cccc(-c2cnc3sc(NC4CCCCC4)nn23)c1 [Compound 251, 3-[2-(cyclo-hexylamino)imidazo[2,1-a] [1,3,4]thiadiazol-5-yl]-N,N-dimethyl-benzamide] | 718 nM |
| CN(C)C(=O)c1cccc(-c2cnc3sc(NCCc4ccc(S(N)(=O)=O)cc4)nn23)c1 [Compound 252, N,N-dimethyl-3-[2-[2-(4-sulfamoylphenyl)ethylamino]imidazo[2,1-a] [1,3,4]thiadiazol-5-yl]benzamide] | 909 nM |
| CN(C)C(=O)c1cccc(-c2cnc3sc(NC4CCC(O)CC4)nn23)c1 (stereo not drawn) [Compound 253, 3-[2-[(4-hydroxycyclo-hexyl)amino]imidazo[2,1-b] [1,3,4]thiadiazol-5-yl]-N,N-dimethyl-benzamide] | 533 nM |
| CC(=O)c1cccc(-c2cnc3sc(NC4CCC(O)CC4)nn23)c1 (stereo not drawn) [Compound 254, 1-[3-[2-[(4-hydroxycyclo-hexyl)amino]imidazo[2,1-a] [1,3,4]thiadiazol-5-yl]phenyl] ethanone] | 487 nM |
| COc1ccc(-c2cnn3c(N)c(-c4cccc(Cl)c4)cnc23)cc1OC [Compound 255, 6-(3-chlorophenyl)-3-(3,4-dimethoxyphenyl) pyrazolo[1,5-a]pyrimidin-7-amine] | 804 nM |
| CC(=O)Nc1cccc(-c2cnc3sc(NCc4ccco4)nn23)c1 [Compound 256, N-[3-[2-(2-furylmethylamino)imidazo[2,1-a] [1,3,4]thiadiazol-5-yl]phenyl] acetamide] | 4570 nM |
| CN(C)C(=O)c1cccc(-c2cnc3sc(NCC4CC4)nn23)c1 [Compound 257, 3-[2-(cyclopropyl-methylamino)imidazo[2,1-d] [1,3,4]thiadiazol-5-yl]-N,N-dimethyl-benzamide] | 977 nM |
| CC(C)CNc1nn2c(-c3cccc(C(=O)N(C)C)c3)cnc2s1 [Compound 258, 3-[2-(isobutylamino)imidazo[2,1-d] [1,3,4]thiadiazol-5-yl]-N,N-dimethyl-benzamide] | 283 nM |
| CN(C)C(=O)c1cccc(-c2cnc3sc(NCc4ccc(F)cc4)nn23)c1 [Compound 259, 3-[2-[(4-fluorophenyl)methylamino]imidazo[2,1-b] [1,3,4]thiadiazol-5-yl]-N,N-dimethyl-benzamide] | 2760 nM |
| CC(=O)Nc1cccc(-c2cnc3sc(NCc4cccs4)nn23)c1 [Compound 260, N-[3-[2-(2-thienylmethyl-amino)imidazo [2,1-b] [1,3,4]thiadiazol-5-yl]phenyl] acetamide] | 3930 nM |
| Cn1cc(-c2cnc3sc(NCCc4ccc(S(N)(=O)=O)cc4)nn23)cn1 [Compound 261, 4-[2-[[5-(1-methylpyrazol-4-yl)imidazo[2,1-d][1,3,4]thiadiazol-2-yl]amino]ethyl] benzene-sulfonamide] | 2260 nM |
| CN(C)c1cccc(-c2cnc3sc(NC4CCC(O)CC4)nn23)c1 (stereo not drawn) [Compound 262, 4-[[5-[3-(dimethylamino)phenyl]imidazo [2,1-a] [1,3,4]thiadiazol-2-yl]amino] cyclohexanol] | 5790 nM |
| CN(C)C(=O)c1cccc(-c2cnc3sc(NCC4CCOCC4)nn23)c1 [Compound 268, N,N-dimethyl-3-[2-(tetrahydro-pyran-4-ylmethylamino)imidazo[2,1-b] [1,3,4]thiadiazol-5-yl]benzamide] | 2730 nM |
| COc1cncc(-c2cnc3sc(NCc4ccc5c(c4)OCO5)nn23)c1 [Compound 271, N-(1,3-benzodioxol-5-ylmethyl)-5-(5-methoxy-3-pyridyl)imidazo [2,1-b] [1,3,4]thiadiazol-2-amine] | 448 nM |
| CC(=O)Nc1cccc(-c2ccc3ncc(-c4cccc(NC(C)=O)c4)n3n2)c1 [Compound 279, N-[3-[3-(3-acetamidophenyl)imidazo[1,2-b]pyridazin-6-yl]phenyl] acetamide] | 553 nM |

Results, then the compound that gave them:

| IC50 | SMILES |
| --- | --- |
| 7070 nM | CC(C)CNc1nn2c(-c3cccc(NS(C)(=O)=O)c3)cnc2s1 [Compound 263, N-[3-[2-(isobutylamino)imidazo[2,1-b] [1,3,4]thiadiazol-5-yl]phenyl] methane-sulfonamide] |
| 2880 nM | NC(=O)c1cccc(-c2cnc3sc(NCCCO)nn23)c1 [Compound 264, 3-[2-(3-hydroxypropyl-amino)imidazo [2,1-b][1,3,4]thiadiazol-5-yl]benzamide] |
| 3800 nM | Oc1ccc(-c2cnc3sc(NC4CCC(O)CC4)nn23)cc1 (stereo not drawn) [Compound 265, 4-[2-[(4-hydroxycyclo-hexyl)amino]imidazo[2,1-b] [1,3,4]thiadiazol-5-yl]phenol] |
| 1230 nM | NC(=O)c1cccc(-c2cnc3sc(NCc4ccco4)nn23)c1 [Compound 266, 3-[2-(2-furylmethyl-amino)imidazo[2,1-b] [1,3,4]thiadiazol-5-yl]benzamide] |
| 2610 nM | COc1ccc(-c2cnc3sc(NCCc4ccc(S(N)(=O)=O)cc4)nn23)cn1 [Compound 267, 4-[2-[[5-(6-methoxy-3-pyridyl)imidazo [2,1-b] [1,3,4]thiadiazol-2-yl]amino]ethyl]benzene-sulfonamide] |
| 5170 nM | COc1cncc(-c2cnc3sc(NCC(C)C)nn23)c1 [Compound 270, N-isobutyl-5-(5-methoxy-3-pyridyl)imidazo [2,1-b] [1,3,4]thiadiazol-2-amine] |
| 169 nM | COc1cc(-c2cnc3ccc(-c4ccc(NC(C)=O)cc4)nn23)ccc1O [Compound 272, N-[4-[3-(4-hydroxy-3-methoxy-phenyl)imidazo [1,2-b]pyridazin-6-yl]phenyl] acetamide] |
| 1170 nM | CC(=O)Nc1cccc(-c2cnc3ccc(-c4ccc5c(c4)OCO5)nn23)c1 [Compound 273, N-[3-[6-(1,3-benzodioxol-5-yl)imidazo[1,2-b]pyridazin-3-yl]phenyl] acetamide] |
| 1110 nM | CC(=O)Nc1cccc(-c2ccc3ncc(-c4ccc5c(c4)OCO5)n3n2)c1 [Compound 274, N-[3-[3-(1,3-benzodioxol-5-yl)imidazo[1,2-b]pyridazin-6-yl]phenyl] acetamide] |
| 2030 nM | CC(=O)Nc1cc(-c2ccc(C(=O)N3CCOCC3)cc2)cn2c(-c3cccc(C(C)=O)c3)cnc12 [Compound 275] |
| 1500 nM | CC(=O)Nc1cccc(-c2cnc3ccc(-c4cccc(OC(F)(F)F)c4)nn23)c1 [Compound 276, N-[3-[6-[3-(trifluoromethoxy)phenyl]imidazo [1,2-b]pyridazin-3-yl]phenyl] acetamide] |
| 653 nM | COc1ccc(-c2ccc3ncc(-c4cccc(C(C)=O)c4)n3n2)cc1OC [Compound 277, 1-[3-[6-(3,4-dimethoxyphenyl)imidazo[1,2-b]pyridazin-3-yl]phenyl] ethanone] |
| 1080 nM | CC(=O)Nc1cccc(-c2cnc3ccc(-c4ccc(S(C)(=O)=O)cc4)nn23)c1 [Compound 278, N-[3-[6-(4-methylsulfonyl-phenyl)imidazo [1,2-b]pyridazin-3-yl]phenyl] acetamide] |
| 2330 nM | COc1ccc(CNc2nn3c(-c4cccc(C(=O)N(C)C)c4)cnc3s2)cc1 [Compound 280, 3-[2-[(4-methoxyphenyl)methylamino]imidazo[2,1-b] [1,3,4]thiadiazol-5-yl]-N,N-dimethyl-benzamide] |
| 620 nM | CC(=O)Nc1cccc(-c2ccc3ncc(-c4cccc(C(C)=O)c4)n3n2)c1 [Compound 281, N-[3-[3-(3-acetylphenyl)imidazo[1,2-b]pyridazin-6-yl]phenyl] acetamide] |

— US10688093B2, “Methods, compositions, and uses of novel Fyn kinase inhibitors” (priority 2015, dated 2020)
